# Measurements from patent publication US20250215493A1, “NUCLEOTIDES WITH ENZYMATICALLY CLEAVABLE 3'-O-GLYCOSIDE BLOCKING GROUPS FOR SEQUENCING” (Illumina, Inc., priority 2023, published 2025).
# Columns and labels:
# [1] = system: α-Mannosidase 92B, Bacteroides thetaiotaomicron; assay: Cleavage of 3′-glycoside thymidine by glycosyl hydrolases (HPLC); format: biochemical; conditions: 100 mM HEPES pH 7.0, 2 mM CaCl2, 37° C.
# Method: (§1) The cleavage of the 3′-glycoside moiety from 3′-(β)-glucopyranoside thymidine, 3′-(β)-xylopyranoside thymidine and 3′-(α)-mannopyranoside thymidine using glycosyl hydrolases was tested by incubating the nucleoside substrate (200 μM) with the enzyme (2 μM) in buffer. At set timepoints, 50 μL aliquots of the reaction solution were taken and quenched with 50 μL of either 0.1 M EDTA or […]. The aliquots were then analysed by reverse phase HPLC (YMC-Triart C18 Column, 12 nm, 5 μm, 250×4.6 mm column) using a gradient from 0% to 8% acetonitrile in 0.1 M TEAB over 25 minutes, monitoring the disappearance of the 3′-glycopyranoside thymidine substrate peak and the appearance of the thymidine product peak.
# [2] = system: α-Mannosidase 92S, Bacteroides thetaiotaomicron; assay: as above; format: biochemical; conditions: 100 mM HEPES pH 7.0, 2 mM CaCl2, 37° C.
# Method: as §1
# T. maritima GH51 ABFase = assay: Enzymatic cleavage of 3′-ABF deoxythymidine by GH51 ABFase (HPLC); format: biochemical, Thermotoga maritima; conditions: 80° C., sodium phosphate pH 6.5; 200 μM substrate, 2 μM enzyme
# Method: (§2) Candidate arabinofuranosidases (ABFases) were tested for hydrolysis of 3′-ABF. 3′-ABF deoxythymidine was preincubated in […] sodium citrate pH 5.5 or sodium phosphate pH 6.5 at designated temperatures for 5 minutes. Enzyme was added to the reaction so that the final reaction contained 200 μM substrate and 2 μM enzyme. At indicated time points, 50 μL aliquots were removed and quenched with 50 μL 0.1N NaOH prior to analysis by HPLC (YMC Triart C18, 250×4.5 mm, S-5 μm, 12 nm, 0.1M TEAB/100% Acetonitrile) to determine the percentage of enzymatically unblocked nucleotide (or % deprotection).
# (§3) Various arabinofuranosidases (ABFases) included CAZy Glycoside Hydrolases family 51 (GH51) from Thermotoga maritima, Cellvibrio japonicus, Clostridium thermocellum, Bacillus subtilis, and Podosporina anserina. The molar ratio of enzyme to 3′-ABF deoxythymidine was 1:100 in all reaction mixes. The reaction using T. maritima ABFase was carried out at 80° C. with a sodium phosphate buffer to ensure a pH of 6.5. The reaction using C. japonicus ABFase was carried out at 37° C. with a sodium citrate buffer to ensure a pH of 5.5. The reaction using C. thermocellum ABFase was carried out at 65° C. with a sodium phosphate buffer to ensure a pH of 6.5. The reaction using B. subtilis ABFase was carried out at 60° C. with a sodium phosphate buffer to ensure a pH of 6.5. […]
# [3] = biological target: C. thermocellum GH51 ABFase (Acetivibrio thermocellus, UniProt A3DIH0); assay: as above; format: biochemical, Clostridium thermocellum; conditions: 65° C., sodium phosphate pH 6.5; 200 μM substrate, 2 μM enzyme
# C. thermocellum GH51 ABFase, sequence (A3DIH0 whole entry): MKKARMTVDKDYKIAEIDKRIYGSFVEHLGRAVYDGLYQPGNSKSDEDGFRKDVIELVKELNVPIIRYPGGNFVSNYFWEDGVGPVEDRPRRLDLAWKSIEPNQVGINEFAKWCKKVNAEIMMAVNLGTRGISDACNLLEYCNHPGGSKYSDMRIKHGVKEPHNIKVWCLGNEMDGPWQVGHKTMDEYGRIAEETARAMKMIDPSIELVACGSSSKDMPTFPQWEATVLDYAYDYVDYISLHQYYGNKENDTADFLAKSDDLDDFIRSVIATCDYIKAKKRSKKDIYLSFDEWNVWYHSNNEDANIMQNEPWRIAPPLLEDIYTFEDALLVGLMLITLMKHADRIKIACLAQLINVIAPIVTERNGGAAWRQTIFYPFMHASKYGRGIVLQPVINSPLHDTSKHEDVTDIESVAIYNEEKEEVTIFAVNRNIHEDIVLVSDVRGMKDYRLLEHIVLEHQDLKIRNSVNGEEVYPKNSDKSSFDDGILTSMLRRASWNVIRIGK
# Method: as §2, §3
# C. japonicus GH51 ABFase = assay: as above; format: biochemical, Cellvibrio japonicus; conditions: 37° C., sodium citrate pH 5.5; 200 μM substrate, 2 μM enzyme
# Method: as §2, §3
# B. subtilis GH51 ABFase = assay: as above; format: biochemical, Bacillus subtilis; conditions: 60° C., sodium phosphate pH 6.5; 200 μM substrate, 2 μM enzyme
# Method: as §2, §3
# P. anserina GH51 ABFase = assay: as above; format: biochemical, Podosporina anserina; conditions: 60° C., sodium citrate pH 5.5; 200 μM substrate, 2 μM enzyme
# Method: as §2, §3
# [4] = 3′-ABF blocking group stability testing (staging in incorporation buffer, UPLC); format: physicochemical
# Method: T Nucleoside was blocked with a 3′-O-α-L-arabinofuranoside (3′-ABF,
# blocking groups. 1 mL of 3′ blocked T nucleosides at 0.1 mM were made in a solution of 50 mM glycine buffer (pH 9.9), 50 mM NaCl, and 1 mM EDTA. F
# These solutions were incubated at 60° C. in a heating block for 1 month. Spontaneous cleavage of the 3′-ABF under incorporation conditions (50 mM Glycine pH 9.8 at 60° C.) was measured by staging 3′-ABF deoxythymine to evaluate the stability of 3′-ABF as a blocking group. At set time points, 40 μL aliquots were taken and analyzed by UPLC (conditions/column) to determine the percentage of blocked nucleotide remaining and the eventual formation of unblocked nucleotide.
# [5] = system: Xylosidase 3A, Sulfolobus solfataricus; assay: Cleavage of 3′-glycoside thymidine by glycosyl hydrolases (HPLC); format: biochemical; conditions: 100 mM MES pH 6.0, 50° C.
# Method: as §1
# [6] = system: Xylosidase 43A, Thermobifida fusca; assay: as above; format: biochemical; conditions: 100 mM sodium citrate pH 5.5, 50° C.
# Method: as §1
# [7] = system: Xylosidase 39A, Clostridium stercorarium; assay: as above; format: biochemical; conditions: 100 mM MES pH 6.0, 5 mM CaCl2, 50° C.
# Method: as §1
# [8] = system: mutant DNA polymerase Pol A; assay: Primer extension assay, incorporation into DNA (33P-labelled primer:template, PAGE); format: biochemical
# Method: The incorporation of the 5′-triphosphate 3′-[(β)-D-glucopyranosyl]thymidine and 5′-triphosphate 3′-[(β)-D-xylopyranosyl]thymidine into DNA by a mutant DNA polymerase Pol A was tested using a primer extension assay. Briefly, a ^33P-labelled DNA primer:template (20 nM) was incubated with the DNA polymerase ([…]) and the nucleotide triphosphates (1 μM) in buffer (50 mM Glycine pH 9.6, 50 mM NaCl, 9 mM MgSO4, 1 mM EDTA) at 60° C. The rate was determined by calculating the percentage of incorporation compared to the initial primer template band and the incorporation results are shown in FIG. 6B.
# Pol A (SBS polymerase) = assay: Sequencing flowcell assay, loss of % T call signal on incorporation of unlabeled 3′ blocked dTTP; format: biochemical
# Method: (§4) A further example examined whether cleavage of 3′-ABF is feasible on DNA clusters on the surface of a sequencing flow cell. To this end, a sequencing assay monitoring the loss and recovery of % T call signal as read-out was carried out using an Illumina NextSeq 2000 instrument with a P2 flow cell. FIG. 4A illustrates the sequencing assay workflow using loss and recovery of % T call signal as readout, including: (1) The % T call signal baseline based on a standard Illumina Green ffT (e.g., ffT-3′-AZM-LN3-AF550POPOso) is first established with a series of SBS cycles using standard SBS chemistry; (2) incorporation by Pol A (SBS polymerase) of unlabeled dTTP with a different 3′-block (i.e., 3′-ABF dTTP or 3′-AOM dTTP used as control) results in the loss of this signal; (3) the % T signal is only partially recovered to around 75% relative to the initial baseline in subsequent standard cycles as around 25% DNA clusters are blocked by the alternative 3′-block which is uncleaved under standard SBS chemistry conditions; (4) injection of the cleavage mix specifically removing this block (i.e., ABFase removing the 3′-ABF or Pd catalyst removing 3′-AOM for the control experiment) followed by standard cycles resulting in the full recovery of the signal. […]
# C. japonicum ABFase = assay: Sequencing flowcell assay, recovery of % T call signal after enzymatic cleavage from DNA clusters; format: biochemical; conditions: 30 minutes, 60° C., pH 5.5
# Method: as §4
# [9] = system: β-Glucosidase 1A, Thermobifida fusca; assay: Cleavage of 3′-glycoside thymidine by glycosyl hydrolases (HPLC); format: biochemical; conditions: 100 mM HEPES pH 7.0, 50° C.; 200 μM substrate, 2 μM enzyme
# Method: as §1
# [10] = system: β-Glucosidase 3B, Cellvibrio japonicus; assay: as above; format: biochemical; conditions: 37° C.
# Method: as §1
# [11] = system: β-Glucosidase 1A, Thermus thermophilus; assay: as above; format: biochemical; conditions: 100 mM sodium citrate pH 6.5, 50° C.; 200 μM substrate, 2 μM enzyme
# Method: as §1
# [12] = 1 μM nucleotide, 50 mM Glycine pH 9.6, 60° C.
structure (smiles),measurement,setting,value
"Cc1cn([C@H]2CC(O[C@H]3OC(CO)[C@@H](O)C(O)C3O)[C@@H](CO)O2)c(=O)[nH]c1=O (stereo partly drawn) [3′-(α)-mannopyranoside thymidine, 3′-[(α)-D-mannopyranosyl]thymidine]",cleavage of the 3′-mannopyranoside group,[1],not observed
same,cleavage of the 3′-mannopyranoside group,[2],not observed
"Cc1cn([C@H]2C[C@H](O[C@@H]3O[C@@H](CO)[C@H](O)[C@H]3O)[C@@H](CO)O2)c(=O)[nH]c1=O [3′-ABF-dT, 3′-O-(α-L-arabinofuranosyl)-deoxythymidine]",observed reaction constant kobs,T. maritima GH51 ABFase,0.15 s⁻¹
same,observed reaction constant kobs,[3],0.01 s⁻¹
same,observed reaction constant kobs,C. japonicus GH51 ABFase,0.03 s⁻¹
same,observed reaction constant kobs,B. subtilis GH51 ABFase,0.035 s⁻¹
same,observed reaction constant kobs,P. anserina GH51 ABFase,0.19 s⁻¹
same,percentage of remaining blocked nucleoside,"[4]; after 31 days of staging at 60° C., 0.1 mM in 50 mM glycine buffer (pH 9.9), 50 mM NaCl, 1 mM EDTA",About 100%
same,stability of 3′-blocking group compared to AZM in solution,"[4]; higher stability vs 3′-AZM-dT, 60° C., glycine buffer",80-100 fold
"Cc1cn([C@H]2CC(O[C@@H]3OC[C@@H](O)C(O)C3O)[C@@H](CO)O2)c(=O)[nH]c1=O (stereo partly drawn) [3′-(β)-xylopyranoside thymidine, 3′-[(β)-D-xylopyranosyl]thymidine]",cleavage of the 3′-xylopyranoside group,[5],observed
same,time to full conversion of the substrate,[5],> 22 h
same,cleavage of the 3′-xylopyranoside group,[6],observed
same,time to full conversion of the substrate,[6],> 22 h
same,cleavage of the 3′-xylopyranoside group,[7],observed
same,time to full conversion of the substrate,[7],> 22 h
Cc1cn([C@H]2CC(O[C@@H]3OC[C@@H](O)C(O)C3O)[C@@H](COP(=O)(O)OP(=O)(O)OP(=O)(O)O)O2)c(=O)[nH]c1=O (stereo partly drawn) [5′-triphosphate 3′-[(β)-D-xylopyranosyl]thymidine],substrate for Pol A,[8]; [12],is a substrate for Pol A
same,rate of incorporation,"[8]; compared to 5′-triphosphate 3′-[(α)-L-arabinofuranosyl]thymidine and 5′-triphosphate 3′-allyloxymethyl thymidine, 60° C., pH 9.6",slower
"Cc1cn([C@H]2C[C@H](O[C@@H]3O[C@@H](CO)[C@H](O)[C@H]3O)[C@@H](COP(=O)(O)OP(=O)(O)OP(=O)(O)O)O2)c(=O)[nH]c1=O [3′-ABF TTP, 3′-O-(α-L-arabinofuranosyl)-deoxythymidine-5′-triphosphate]",% T fluorescence signal upon incorporation of the unlabeled nucleotide,"Pol A (SBS polymerase); NextSeq 2000, P2 flow cell",fully drops
same,% T fluorescence signal recovered when standard SBS cycles resume,"Pol A (SBS polymerase); of the initial baseline, before enzymatic cleavage",around 75%
same,recovery of the initial % T fluorescence signal after enzymatic cleavage,C. japonicum ABFase,full recovery
"Cc1cn([C@H]2CC(O[C@@H]3OC(CO)[C@@H](O)C(O)C3O)[C@@H](CO)O2)c(=O)[nH]c1=O (stereo partly drawn) [3′-(β)-glucopyranoside thymidine, 3′-[(β)-D-glucopyranosyl]thymidine]",time to complete cleavage of the 3′-glucopyranoside group,[9],less than 2 minutes
same,time to complete cleavage of the 3′-glucopyranoside group,[10]; pH 6.5 (100 mM sodium citrate),approximately 2 hours
same,time to complete cleavage of the 3′-glucopyranoside group,[10]; pH 7.5 (100 mM sodium phosphate),approximately 2 hours
same,time to complete cleavage of the 3′-glucopyranoside group,[11],less than 2 minutes
Cc1cn([C@H]2CC(O[C@@H]3OC(CO)[C@@H](O)C(O)C3O)[C@@H](COP(=O)(O)OP(=O)(O)OP(=O)(O)O)O2)c(=O)[nH]c1=O (stereo partly drawn) [5′-triphosphate 3′-[(β)-D-glucopyranosyl]thymidine],incorporation observed,[8]; [12],no detectable incorporation
same,substrate for Pol A,[8]; [12],is a poor substrate for Pol A
